Test results: patent publication US20140121220A1, “CRYSTALS OF PHENYLPYRROLE DERIVATIVE” (Daiichi Sankyo Company, Limited, priority 2011, published 2014)
Converted amounts (≈) assume the structure as drawn. Like-named read-outs stand apart in the source and are kept apart here.

How the values were obtained:
[1] = Solubility test (Test Example 4); format: physicochemical; settings: 4 mg in 2 mL; for solubility at 30 min: 37 °C, thermodynamic from solid, read-out: Concentration (solubility); for Concentration (solubility): 37° C., 30 minutes
Description: The Form I crystal (4 mg), the Form II crystal (4 mg) and Compound II (4 mg) were respectively dissolved in 2 mL of water, Japanese Pharmacopoeia Elution Test Solution 1 (JP1), Japanese Pharmacopoeia Elution Test Solution 2 (JP2), Fasted State Simulated Intestinal Fluid (FaSSIF) and Fed State Simulated Intestinal Fluid (FeSSIF). After stirring vigorously for 30 seconds every 5 minutes in a constant temperature water bath at 37° C., a portion of the supernatant was sampled 30 minutes later and filtered with a syringe filter. The filtrate was suitably diluted for use as the sample solution.
The sample solution was measured using HPLC under the following conditions.
HPLC system: Waters Alliance
Column: Waters, XBridge C18 3.5 μm
Column temperature: 40° C.
Solvent A: 5 mM aqueous ammonium hydrogencarbonate solution
The gradient program is as indicated below.

[2] = system: spontaneously diabetic rats (ZDF-Lepr^fa/CrlCrlj); assay: Blood glucose lowering activity test (Test Example 6); format: in vivo, rat; settings: for Area under blood glucose curve: 0 to 6 hours after oral administration, fasting, Form I crystal 10 mg/kg, Compound II 8.3 mg/kg (equivalent as free form), average of five
Description: Male, 9-week-old, spontaneously diabetic rats (ZDF-Lepr^fa/CrlCrlj) were used.
A crystal of the compound of the present invention in the form of the Form I crystal at 10 mg/kg or the free form thereof in the form of Compound II at 8.3 mg/kg (calculated based on the free form, corresponding to the equivalent of 10 mg/kg of the Form I crystal) was respectively suspended in a 20% aqueous HP-β-cyclodextrin solution (hereinafter referred to as “vehicle”) and orally administered under fasting conditions.
Blood glucose levels were measured in accordance with ordinary methods before administration of the compounds (at 0 hour) and at 0.5, 1, 2, 4 and 6 hours after administration. Namely, the tips of the rat tails (about 1 mm) were severed and blood collected with hematocrit tubes subjected to anticoagulation treatment with heparin were centrifuged followed by measuring the resulting plasma with the Glucoroder F (A&T Corporation). The areas under blood glucose curves from 0 to 6 hours after administration were calculated using the resulting blood glucose values.
The results of a blood glucose lowering activity test on each group administered with the Form I crystal, Compound II or vehicle only were as shown in Table 8.
Furthermore, the values shown in Table 8 are all the average values of test result values obtained using five spontaneously diabetic rats (ZDF-Lepr^fa/CrlCrlj).

[3] = Hygroscopicity test (Test Example 3); format: physicochemical; settings: 25° C., 10 to 90% RH
Description: The sample was weighed in a glass sample cup, and weight was measured under the conditions indicated below.
Measuring instrument: SGA-100 (VTI Corp.)
Measuring temperature: 25° C.
Minimum exposure time: 15 min
Maximum exposure time: 120 min
Step transition condition: within 0.03 wt %
The appearance of the sample was observed following completion of measurement.

[4] = Evaluation of in vivo absorption
[5] = Fed State Simulated Intestinal Fluid (FeSSIF)
[6] = Japanese Pharmacopoeia Elution Test Solution 2 (JP2)
[7] = Fasted State Simulated Intestinal Fluid (FaSSIF)
[8] = Japanese Pharmacopoeia Elution Test Solution 1 (JP1)

Row | solubility at 30 min ([1]; Fasted State Simulated Intestinal Fluid (FaSSIF), fassif, Fasted State Simulated Intestinal Fluid (FaSSIF)) [µg/mL] | Concentration (solubility) [1, 5] [µg/mL] | solubility at 30 min ([1]; Japanese Pharmacopoeia Elution Test Solution 1 (JP1), pH 1.2, simulated gastric fluid, Japanese Pharmacopoeia Elution Test Solution 1 (JP1)) [µg/mL] | Concentration (solubility) [1, 6] [µg/mL] | Concentration (solubility) ([1]; Water) [µg/mL] | Concentration (solubility) [1, 7] [µg/mL] | Concentration (solubility) [1, 8] [µg/mL] | Hygroscopicity (moisture sorption-desorption behavior) [3] | SMILES | Area under blood glucose curve [2] [mg/dl × hr] | Blood glucose lowering activity compared with Compound II ([2]; oral, 10 mg/kg Form I crystal vs 8.3 mg/kg Compound II) | Blood concentrations in comparison with Compound II [4]
1 | 12 (≈ 25.4 µM) | 222 | > 1500 | 5.87 | 5.59 |  |  |  | C[C@H]1CN=C(c2ccc(-c3cc(Oc4cnc(S(C)(=O)=O)cn4)cc(O[C@@H](C)CO)c3)[nH]2)O1 [Compound II, (2S)-2-(3-{5-[(5S)-5-Methyl-4,5-dihydro-1,3-oxazol-2-yl]-1H-pyrrol-2-yl}-5-{[5-(methylsulfonyl)pyrazin-2-yl]oxy}phenoxy)propan-1-ol, reference compound] | 661.8 ± 26.9 |  | 
2 |  | 1145 |  | 11.8 | >1500 | 20.4 | >1500 | did not demonstrate hygroscopicity | C[C@H]1CN=C(c2ccc(-c3cc(Oc4cnc(S(C)(=O)=O)cn4)cc(O[C@@H](C)CO)c3)[nH]2)O1 [Form I crystal, (2S)-2-(3-{5-[(5S)-5-Methyl-4,5-dihydro-1,3-oxazol-2-yl]-1H-pyrrol-2-yl}-5-{[5-(methylsulfonyl)pyrazin-2-yl]oxy}phenoxy)propan-1-ol monomethanesulfonate] | 529.0 ± 24.5 | superior to that of the free form | high blood concentrations in comparison with Compound II
3 |  | 1381 |  | 14.1 | >1500 | 20.5 | >1500 | did not demonstrate hygroscopicity | C[C@H]1CN=C(c2ccc(-c3cc(Oc4cnc(S(C)(=O)=O)cn4)cc(O[C@@H](C)CO)c3)[nH]2)O1 [Form II crystal, (2S)-2-(3-{5-[(5S)-5-Methyl-4,5-dihydro-1,3-oxazol-2-yl]-1H-pyrrol-2-yl}-5-{[5-(methylsulfonyl)pyrazin-2-yl]oxy}phenoxy)propan-1-ol monomethanesulfonate] |  |  | high blood concentrations in comparison with Compound II
